Earlier results in article PMC3600580 (Experimental neurology, 2012).

System: offspring
Conditions: developmental exposure, ref Kuriyama, et al., 2005, Rice, 2007, Suvorov, 2009

## Brc1c(Br)c(Br)c(Oc2c(Br)c(Br)c(Br)c(Br)c2Br)c(Br)c1Br [compound 209]
  activity phenotype of offspring: hyperactive

## Brc1ccc(Oc2ccc(Br)cc2Br)c(Br)c1 [BDE-47, 2,2′,4,4′-TetraBDE]
  activity phenotype of offspring: hyperactive
